Article PMC12748958 (Nature Communications, 2025)

Target: T1, PsiR-M2 (Agrobacterium fabrum, UniProt A9CH24, R109G/V134A)
T1 sequence (A9CH24 1-359 R109G/V134A): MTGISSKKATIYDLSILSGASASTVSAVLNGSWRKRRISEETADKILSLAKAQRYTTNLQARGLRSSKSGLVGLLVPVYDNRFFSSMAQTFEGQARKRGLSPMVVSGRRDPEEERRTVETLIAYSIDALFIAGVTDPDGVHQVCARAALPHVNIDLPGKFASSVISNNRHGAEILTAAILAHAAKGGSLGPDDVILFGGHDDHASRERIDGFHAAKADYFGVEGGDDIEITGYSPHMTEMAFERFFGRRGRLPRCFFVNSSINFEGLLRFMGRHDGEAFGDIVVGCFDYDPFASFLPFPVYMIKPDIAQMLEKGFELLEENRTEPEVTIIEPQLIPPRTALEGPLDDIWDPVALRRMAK
Experiment: microscale thermophoresis
Assay type: binding

## O=C(CO)[C@H](O)[C@H](O)[C@H](O)CO [D-allulose]
  microscale thermophoresis (MST) on purified protein: After purifying PsiR-WT, M2, and M4 from E. coli BL21(DE3) via His-tag affinity chromatography
